Results taken from EP1119551B1, “NAPHTHALENECARBOXAMIDES AS TACHYKININ RECEPTOR ANTAGONISTS” (AstraZeneca AB, priority 1998, dated 2000).

Experiments:
NK2 receptor = target: T1, NK2 receptor (Oryctolagus cuniculus, UniProt P79218); test: Rabbit Pulmonary Artery: NK2 in vitro functional assay (Test D); type: cell-based; conditions: antagonism of agonist BANK, -log molar apparent dissociation constant KB, read-out: NK2 pKb (Test D) (converted)
T1 construct: The pulmonary arteries are isolated from the rest of the tissues, then rubbed over an intimal surface to remove the endothelium; from tissue; host or cells: rabbit pulmonary artery rings (endothelium removed)
T1 sequence (P79218 1-384): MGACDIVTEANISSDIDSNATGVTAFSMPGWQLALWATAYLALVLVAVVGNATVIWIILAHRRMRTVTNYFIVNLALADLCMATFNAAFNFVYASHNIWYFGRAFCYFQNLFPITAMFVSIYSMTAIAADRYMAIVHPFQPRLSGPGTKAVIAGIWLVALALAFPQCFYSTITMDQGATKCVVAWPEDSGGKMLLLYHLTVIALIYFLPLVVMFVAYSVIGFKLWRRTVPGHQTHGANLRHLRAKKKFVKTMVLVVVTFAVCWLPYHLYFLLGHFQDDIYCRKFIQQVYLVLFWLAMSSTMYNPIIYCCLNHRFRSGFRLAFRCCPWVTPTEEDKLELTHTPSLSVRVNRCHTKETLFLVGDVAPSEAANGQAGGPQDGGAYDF
Protocol: The ability of a compound of the invention to antagonize the action of the agonist [β-ala8] […] Male New Zealand white rabbits are euthanized via i.v. injection into the ear vein with 60 mg/kg Nembutal (50 mg/mL). Preceding the Nembutal into the vein is Heparin (1000 units/mL) at 0.0025 mL/kg for anticoagulant purposes. The chest cavity is opened from the top of the rib cage to the sternum and a small incision is made into the heart so that the left and right pulmonary arteries can be cannulated with polyethylene tubing (PE260 and PE190 respectively). […] Responses are measured on a Grass polygraph via Grass FT-03 transducers. […]
Percent inhibition is determined when a tested compound produces a statistically significant (p < 0.05) reduction of the total contraction which is calculated using the total contraction of the BaCl2 as 100%. Potencies of the compounds are determined by calculating the apparent dissociation constants (KB) for each concentration tested using the standard equation: KB = [antagonist]/ (dose ratio - 1) [formula] where dose ratio = antilog[(agonist -log molar EC50 without compound) - (-log molar EC50 with compound)]. The KB values may be converted to the negative logarithms and expressed as -log molar KB (i.e. pKB). […] The EC50 values are converted to negative logarithms and expressed as -log molar EC50.

NK1 receptor = NK1 receptor (Oryctolagus cuniculus, UniProt G1SEI7); test: Rabbit Pulmonary Artery: NK1 in vitro functional assay (Test C); type: cell-based; conditions: antagonism of agonist ASMSP, -log molar apparent dissociation constant KB
Protocol: Rabbit Pulmonary Artery: NK1 in vitro functional assay (Test C) […] Male New Zealand white rabbits are euthanized via i.v. injection into the ear vein with 60 mg/kg Nembutal (50 mg/mL). Preceding the Nembutal into the vein is Heparin (1000 units/mL) at 0.0025 mL/kg for anticoagulant purposes. The chest cavity is opened from the top of the rib cage to the sternum and the heart, lungs and part of the trachea are removed. The pulmonary arteries are isolated from the rest of the tissues and cut in half to serve as pairs. […] Responses are measured on a Grass polygraph via Grass FT-03 transducers. […] Percent inhibition is determined when a tested compound produces a statistically significant (p < 0.05) reduction of the total relaxation which is calculated using the total relaxation of the Papaverine as 100%. Potencies of the compounds are determined by calculating the apparent dissociation constants (KB) for each concentration tested using the standard equation: KB= [antagonist]/ (dose ratio - 1) [formula] where dose ratio = antilog[(agonist -log molar EC50 without compound) - (-log molar EC50 with compound)]. The KB values may be converted to the negative logarithms and expressed as -log molar KB (i.e. pKB). […] The EC50 values are converted to negative logarithms and expressed as -log molar EC50.

Chain of NK1 receptor (G1SEI7 1-407): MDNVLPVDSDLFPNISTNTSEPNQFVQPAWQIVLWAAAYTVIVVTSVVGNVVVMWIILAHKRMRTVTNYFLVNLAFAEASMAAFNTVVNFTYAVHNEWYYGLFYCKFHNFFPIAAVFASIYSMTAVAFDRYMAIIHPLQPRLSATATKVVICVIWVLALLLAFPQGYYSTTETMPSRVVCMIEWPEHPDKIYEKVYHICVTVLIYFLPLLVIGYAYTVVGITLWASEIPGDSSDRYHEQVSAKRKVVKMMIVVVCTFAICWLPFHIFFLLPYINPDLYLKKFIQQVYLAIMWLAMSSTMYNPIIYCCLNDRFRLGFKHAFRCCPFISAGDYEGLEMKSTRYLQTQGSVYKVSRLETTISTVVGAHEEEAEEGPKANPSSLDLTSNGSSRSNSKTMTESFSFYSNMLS

Compound | Kb (NK2 receptor) | NK1 pKb (Test C) (NK1 receptor)
COc1c(C#N)cc2ccccc2c1C(=O)N(C)C[C@@H](CCN1CCC(c2ccccc2[S@+](C)[O-])CC1)c1ccc(Cl)c(Cl)c1.O=C(O)CC(O)(CC(=O)O)C(=O)O [Example 1, N-[(S)-2-(3,4-Dichlorophenyl)-4-[4-[(S)-2-methylsulfinylphenyl]-1-piperidinyl]butyl]-N-methyl-2-methoxy-3-cyano-1-naphthamide citrate] | 50.1 nM | 9.5
CCc1c(C#N)cc2ccccc2c1C(=O)N(C)C[C@@H](CCN1CCC(c2ccccc2[S@+](C)[O-])CC1)c1ccc(Cl)c(Cl)c1.O=C(O)CC(O)(CC(=O)O)C(=O)O [Example 18, N-[(S)-2-(3,4-Dichlorophenyl)-4-[4-[(S)-2-methylsulfinylphenyl]-1-piperidinyl]butyl]-N-methyl-3-cyano-2-ethyl-1-naphthamide citrate] | 50.1 nM | 9.6
